Data from paper PMC7213079, “Hit Identification of New Potent PqsR Antagonists as Inhibitors of Quorum Sensing in Planktonic and Biofilm Grown Pseudomonas aeruginosa” (Frontiers in Chemistry, 2020).

Legend:
Assay type in all cases: cell-based, Pseudomonas aeruginosa
PAO1-L mCTX::PpqsA-lux = experiment: PpqsA-lux bioreporter assay, strain PAO1-L; conditions: for activity at 10 µM / IC50: Pseudomonas aeruginosa; for activity at 10 µM: PAO1, read-out: Remaining Activity % (RA%) at 10 μM PAO1-L; for IC50: PAO1, read-out: IC50 PAO1-L; for IC50 PAO1-L: n = 9, NA = not active at 10 μM
Method: In silico virtual screening was performed on the PqsR ligand binding domain (LBD) crystal structure [PDB: 4JVI; (Ilangovan et al., [2013])] using the University of Nottingham Managed Chemical Compound Collection (MCCC) containing 85,061 compounds. Molecular docking was performed using both the OpenEye docking (OpenEye Scientific Software Inc. (Hawkins et al., [2007]) and Schrödinger Suite for molecular modeling (Friesner et al., [2004]; Halgren et al., [2004]). A cut off value of the docking score function was set to -9.0 and the resulting high scoring compounds were further examined (Friesner et al., [2004]; Halgren et al., [2004]). This gave a library of around 500 diverse molecules that were evaluated using in vitro screening in a P. aeruginosa PAO1-L mCTX::PPqsA-lux reporter assay (Diggle et al., [2011]).
(§1) To inform the structural variation of 7, crystal structures with the endogenous ligand [4-hydroxy-2-heptylquinoline (NHQ)] and the inhibitor M64 were used (Ilangovan et al., [2013]; Kitao et al., [2018]). The PqsR LBD is dominated by lipophilic interactions, therefore the current SAR exploration mainly focused on varying the aromatic tail substituents and examining the effect of 8-position substitution. The rationale for these modifications was primarily based on molecular docking studies that provided insights into the mode of binding of 7 and approaches intended to improve potency. The substituent at the para- position of the aromatic ring appeared to be crucial for biological activity due to the vital π-π stacking interaction of this group with Tyr^258. […] These strains emit light upon activation of PqsR by the endogenous production of these signal molecules. […] The results of the SAR in this assay highlight the importance of testing any prospective anti-virulence strategy on multiple genetically distinct P. aeruginosa strains as a means to reduce the chance of failure at both pre-clinical and clinical stages (Freschi et al., [2015]).
(§2) PAO1-L Wild type PAO1, Lausanne subline. B.
PAO1-L mCTX::PpqsA- PAO1-L with chromosomal mini-CTX::PpqsA-lux (Soukarieh lux insertion; TcR et al., 2018) […]
(§3) mini-CTX::PpqsA-lux R6K-based mini-CTX suicide plasmid for the (Diggle et chromosomal insertion of a PpqsA-lux al., 2007) transcriptional reporter fusion; TcR
(§4) Biosensor reporter assay:
(§5) Strains PA14 mCTX::PpqsA-lux and PAO1-L mCTX::PpqsA-lux were constructed using plasmid mini-CTX::PpqsA-lux as previously described (Diggle et al., 2007) and the assay was performed according to published procedures (Fletcher et al., 2007). For screening, the compounds were tested at 10 µM concentration which was prepared from 10 mM stock in DMSO. […]

PA14 mCTX::PpqsA-lux = experiment: PpqsA-lux bioreporter assay, strain PA14; conditions: for IC50: Pseudomonas aeruginosa, PA14, read-out: IC50 PA14; for IC50 PA14: PpqsA-lux bioreporter, n = 9, NA = not active at 10 μM
Text: as §1, with “[2015]). […]” for “[2015]).”
(§6) PA14 mCTX::PpqsA-lux PA14 with chromosomal mini-CTX::PpqsA-lux (Soukarieh insertion; TcR et al., 2018) […]
as §3, §4, §5

PA14 = experiment: Pyocyanin quantification, PA14; conditions: PA14, compound at 3 x IC50, 16 h, compared with the control
Text: Pyocyanin is an important virulence factor for P. aeruginosa infections and in particular respiratory and urinary tract infections. Pyocyanin is a redox-active phenazine the production of which is regulated via PqsR and PqsE (Hall et al., [2016]; Rampioni et al., [2016]; Higgins et al., [2018]). Therefore, pyocyanin production serves as an indirect readout of the activity of the pqs QS system. […] Compound 40 reduced pyocyanin production by over 80% in both strains in agreement with bioreporter assay results.
Figure 4 Pyocyanin production by Pseudomonas aeruginosa after treatment with pqs inhibitors 8, 14, 23, 34, 25, 26, and 40. Quantification of pyocyanin production after inhibitor treatment at 3 × IC50 for both PAO1-L and PA14. The graph represents the average of three independent experiments carried out in triplicate (n = 9).
as §2
PAO1-L mCTX::PpqsA- PAO1-L with chromosomal mini-CTX::PpqsA-lux (Soukarieh lux insertion; TcR et al., 2018)
PA14 Wild type UCBPP-PA14 (Rahme et
as §6
Pyocyanin quantification: […]
Pyocyanin pigment was extracted into chloroform by mixing 7.5 mL of supernatant with 4.5 mL of chloroform. Pyocyanin w as further extracted into 1.5 mL of 0.2 M HCL which gave a pink/red solution and the absorbance was measured at 520 nm.

Question: For Cc1ccc(NC(=O)CSc2nnc3c4cc(Br)ccc4n(C)c3n2)cc1 [Compound 18, 2-((8-Bromo-5-methyl-5H-[1,2,4]triazino[5,6-b]indol-3-yl)thio)-N-(p-tolyl)acetamide], which activity at 10 µM (PAO1-L mCTX::PpqsA-lux) is on record?
Answer: The activity at 10 µM was 32%.

Question: Cn1c2ccc(Br)cc2c2nnc(SCC(=O)Nc3ccc(F)cc3)nc21 [Compound 16, 2-((8-Bromo-5-methyl-5H-[1,2,4]triazino[5,6-b]indol-3-yl)thio)-N-(4-fluorophenyl)acetamide] was tested. Which IC50 (PAO1-L mCTX::PpqsA-lux) did it give?
Answer: The IC50 was 1360 ± 210 nM.

Question: Which IC50 (PAO1-L mCTX::PpqsA-lux) does the source give for Cn1c2ccc(Br)cc2c2nnc(SCC(=O)Nc3ccc(Oc4ccccc4)cc3)nc21 [Compound 25, 2-((8-Bromo-5-methyl-5H-[1,2,4]triazino[5,6-b]indol-3-yl)thio)-N-(4-phenoxyphenyl)acetamide] here?
Answer: The IC50 was 4360 ± 420 nM.

Question: For Cn1c2ccccc2c2nnc(SCC(=O)Nc3ccc(Oc4ncccn4)cc3)nc21 [Compound 28, 2-((5-Methyl-5H-[1,2,4]triazino[5,6-b]indol-3-yl)thio)-N-(4-(pyrimidin-2yloxy)phenyl)acetamide], which IC50 (PAO1-L mCTX::PpqsA-lux) is on record?
Answer: The IC50 was 1040 ± 120 nM.

Question: What about the IC50 (PA14 mCTX::PpqsA-lux) of the same compound?
Answer: Its IC50 is 1330 ± 330 nM.

Question: Cn1c2ccccc2c2nnc(SCC(=O)Nc3ccc(OC(F)(F)F)cc3)nc21 [Compound 21, 2-((5-Methyl-5H-[1,2,4]triazino[5,6-b]indol-3-yl)thio)-N-(4(trifluoromethoxy)phenyl)acetamide] was tested. Which activity at 10 µM (PAO1-L mCTX::PpqsA-lux) did it give?
Answer: Its activity at 10 µM is 29%.

Question: Which IC50 (PAO1-L mCTX::PpqsA-lux) does the source give for Cn1c2ccccc2c2nnc(SCC(=O)Nc3ccc(Cl)cc3)nc21 [Compound 7, N-(4-Chlorophenyl)-2-((5-methyl-5H-[1,2,4]triazino[5,6-b]indol-3-yl)thio)acetamide] here?
Answer: Its IC50 is 980 ± 20 nM.

Question: And the “IC50 PA14” value (PA14 mCTX::PpqsA-lux)?
Answer: The value was “inactive”.

Question: Which results are given for O=C(CSc1nc2cc([N+](=O)[O-])ccc2[nH]1)Nc1ccc(Oc2ccccc2)cc1 [Compound M64, reference compound]?
Answer: IC50 (PAO1-L mCTX::PpqsA-lux): 320 ± 140 nM; IC50 (PA14 mCTX::PpqsA-lux): 1220 ± 340 nM

Question: What does the source list for Cn1c2ccccc2c2nnc(SCC(=O)Nc3ccc(Br)cc3)nc21 [Compound 26, N-(4-Bromophenyl)-2-((5-methyl-5H-[1,2,4]triazino[5,6-b]indol-3-yl)thio)acetamide]?
Answer: IC50 (PAO1-L mCTX::PpqsA-lux): 1710 ± 260 nM; IC50 (PA14 mCTX::PpqsA-lux): 1350 ± 190 nM

Question: For Cn1c2ccc(Br)cc2c2nnc(SCC(=O)Nc3ccc(OC(F)(F)F)cc3)nc21 [Compound 22, 2-((8-Bromo-5-methyl-5H-[1,2,4]triazino[5,6-b]indol-3-yl)thio)-N-(4-(trifluoromethoxy)phenyl)acetamide], which activity at 10 µM (PAO1-L mCTX::PpqsA-lux) is on record?
Answer: The activity at 10 µM was 23%.

Question: Which “IC50 PAO1-L” value (PAO1-L mCTX::PpqsA-lux; PpqsA-lux bioreporter) does the source give for Cn1c2ccc(Br)cc2c2nnc(SCC(=O)Nc3ccccc3Cl)nc21 [Compound 39, 2-((8-Bromo-5-methyl-5H-[1,2,4]triazino[5,6-b]indol-3-yl)thio)-N-(2-chlorophenyl)acetamide] here?
Answer: The value was “inactive”.

Question: What about the “IC50 PA14” value (PA14 mCTX::PpqsA-lux) of the same compound?
Answer: Its value is “inactive”.

Question: What does the source list for Cn1c2ccc(Br)cc2c2nnc(SCC(=O)Nc3ccc(Cl)cc3)nc21 [Compound 8, 2-((8-Bromo-5-methyl-5H-[1,2,4]triazino[5,6-b]indol-3-yl)thio)-N-(4-chlorophenyl)acetamide]?
Answer: IC50 (PAO1-L mCTX::PpqsA-lux): 1990 ± 230 nM; IC50 (PA14 mCTX::PpqsA-lux): 1600 ± 160 nM

Question: What does the source list for Cn1c2ccc(Br)cc2c2nnc(SCC(=O)Nc3ccc(Cl)c(Cl)c3)nc21 [Compound 14, 2-((8-Bromo-5-methyl-5H-[1,2,4]triazino[5,6-b]indol-3-yl)thio)-N-(3,4-dichlorophenyl)acetamide]?
Answer: IC50 (PAO1-L mCTX::PpqsA-lux): 3100 ± 520 nM; IC50 (PA14 mCTX::PpqsA-lux): 7580 ± 820 nM

Question: With Cn1c2ccc(Br)cc2c2nnc(SCC(=O)Nc3ccc(Br)cc3)nc21 [Compound 27, 2-((8-Bromo-5-methyl-5H-[1,2,4]triazino[5,6-b]indol-3-yl)thio)-N-(4-bromophenyl)acetamide] as the compound, how does the IC50 (PAO1-L mCTX::PpqsA-lux) read?
Answer: Its IC50 is 23000 ± 9000 nM.

Question: And the “IC50 PA14” value (PA14 mCTX::PpqsA-lux)?
Answer: Its value is “inactivity”.

Question: Cn1c2ccccc2c2nnc(SCC(=O)Nc3cccc(Cl)c3)nc21 [Compound 11, N-(3-Chlorophenyl)-2-((5-methyl-5H-[1,2,4]triazino[5,6-b]indol-3-yl)thio)acetamide] was tested. Which activity at 10 µM (PAO1-L mCTX::PpqsA-lux) did it give?
Answer: The activity at 10 µM was 34%.

Question: What about the “IC50 PA14” value (PA14 mCTX::PpqsA-lux) of the same compound?
Answer: Its value is “inactive”.

Question: Which IC50 (PAO1-L mCTX::PpqsA-lux) does the source give for Cn1c2ccccc2c2nnc(SCC(=O)Nc3ccc(CC#N)cc3)nc21 [Compound 23, N-(4-(Cyanomethyl)phenyl)-2-((5-methyl-5H-[1,2,4]triazino[5,6-b]indol-3-yl)thio)acetamide] here?
Answer: The IC50 was 620 ± 100 nM.

Question: And the IC50 (PA14 mCTX::PpqsA-lux)?
Answer: The IC50 was 2000 ± 170 nM.

Question: And the “inhibition of pyocyanin production” value (PA14)?
Answer: Its value is “most potent inhibitor”.

Question: With Cc1ccc(NC(=O)CSc2nnc3c4ccccc4n(C)c3n2)cc1 [Compound 17, 2-((5-Methyl-5H-[1,2,4]triazino[5,6-b]indol-3-yl)thio)-N-(p-tolyl)acetamide] as the compound, how does the IC50 (PAO1-L mCTX::PpqsA-lux) read?
Answer: Its IC50 is 1860 ± 10 nM.

Question: What does the source list for Cn1c2ccccc2c2nnc(SCC(=O)Nc3ccccc3Cl)nc21 [Compound 38, N-(2-Chlorophenyl)-2-((5-methyl-5H-[1,2,4]triazino[5,6-b]indol-3-yl)thio)acetamide]?
Answer: IC50 PAO1-L (PAO1-L mCTX::PpqsA-lux; PpqsA-lux bioreporter): inactive; IC50 PA14 (PA14 mCTX::PpqsA-lux): inactive

Question: Which results are given for Cn1c2ccccc2c2nnc(SCC(=O)Nc3ccc(Oc4ccccc4)cc3)nc21 [Compound 24, 2-((5-Methyl-5H-[1,2,4]triazino[5,6-b]indol-3-yl)thio)-N-(4-phenoxyphenyl)acetamide]?
Answer: fold higher activity in PAO1-L compared to 7 (PAO1-L mCTX::PpqsA-lux; PpqsA-lux bioreporter): ~2.5 fold; IC50 (PAO1-L mCTX::PpqsA-lux): 380 ± 60 nM; IC50 (PA14 mCTX::PpqsA-lux): 350 ± 60 nM

Question: Cn1c2ccc(Br)cc2c2nnc(SCC(=O)Nc3cccc(Cl)c3)nc21 [Compound 12, 2-((8-Bromo-5-methyl-5H-[1,2,4]triazino[5,6-b]indol-3-yl)thio)-N-(3-chlorophenyl)acetamide] was tested. Which activity at 10 µM (PAO1-L mCTX::PpqsA-lux) did it give?
Answer: The activity at 10 µM was 43%.

Question: What about the “IC50 PA14” value (PA14 mCTX::PpqsA-lux) of the same compound?
Answer: The value was “inactive”.
